Columns and labels:
[1] = Stability experiment (75% RH, 92.5% RH, 40° C., 60° C. and light for 10 days; XRPD pattern and purity); format: physicochemical; conditions: for stability (in words): 60° C. and light for 10 days
Method: X-ray powder diffraction instrument and test conditions involved in the present disclosure: the model of the X-ray diffraction instrument was Rigaku D/max-2200 Cu target; the operation method included a scanning speed of 10°/min and scanning step width of 0.01°.
High-performance liquid chromatography (HPLC) test conditions involved in the present disclosure: the model of the liquid chromatograph was Agilent 1260; the chromatographic column was Agilent Eclipse XDB C-18 250 mm*4.6 mm Sum; the detection wavelength was 280 nm; and the column temperature was 35° C.
The amorphous form of compound of formula I prepared in Preparation Example, the crystal form A of the compound of formula I prepared in Example 1, the crystal form B of the compound of formula I prepared in Example 7, and the crystal form C of the compound of formula I prepared in Example 11 were placed in 75% RH, 92.5% RH, 40° C., 60° C. and light for 10 days respectively, and the X-ray powder diffraction pattern and purity of each crystal form were measured.

[2] = Granularity experiment; format: physicochemical
Method: (§1) The amorphous form of compound of formula I prepared in Preparation Example, the crystal form A of the compound of formula I prepared in Example 1, the crystal form B of the compound of formula I prepared in Example 7, and the crystal form C of the compound of formula I prepared in Example 11 were measured for granularity, and the specific results are shown in the following table: […]

[3] = Flowability test (angle of repose); format: physicochemical
Method: as §1, with “angle of repose,” for “granularity,”

[4] = molecular target: T1, ERα (Homo sapiens, UniProt P03372); conditions: as indicated in WO2017080338A1; cited from earlier work
T1 sequence (P03372 1-595): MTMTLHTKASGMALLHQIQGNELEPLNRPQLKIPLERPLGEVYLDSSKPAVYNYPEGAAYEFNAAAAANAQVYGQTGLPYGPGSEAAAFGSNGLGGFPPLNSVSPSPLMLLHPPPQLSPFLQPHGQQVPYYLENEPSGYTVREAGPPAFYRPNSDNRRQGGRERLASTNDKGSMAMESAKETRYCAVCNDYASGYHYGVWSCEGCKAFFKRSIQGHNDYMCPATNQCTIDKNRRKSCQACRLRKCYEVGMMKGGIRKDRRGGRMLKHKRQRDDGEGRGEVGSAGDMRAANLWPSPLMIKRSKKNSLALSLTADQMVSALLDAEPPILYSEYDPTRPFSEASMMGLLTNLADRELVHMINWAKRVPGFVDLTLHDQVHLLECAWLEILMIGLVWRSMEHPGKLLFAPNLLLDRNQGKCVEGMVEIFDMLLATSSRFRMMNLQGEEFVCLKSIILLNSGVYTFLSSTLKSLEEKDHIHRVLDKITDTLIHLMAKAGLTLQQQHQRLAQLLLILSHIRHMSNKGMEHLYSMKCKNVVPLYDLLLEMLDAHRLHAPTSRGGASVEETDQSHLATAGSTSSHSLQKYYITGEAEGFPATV

[5] = compared with crystal forms A, B and C

Purity % ([1]; 0 day) [%] | Purity % ([1]; 40° C., 10 days) [%] | Purity % ([1]; 60° C., 10 days) [%] | Purity % ([1]; 75% RH, 10 days) [%] | Purity % ([1]; 92.5% RH, 10 days) [%] | Purity % ([1]; Light, 10 days) [%] | D50 ([2]; granularity) [μm] | granularity ([2]; granularity, second column under amorphous form) [μm] | angle of repose ([3]; measurement 1) [°] | angle of repose ([3]; measurement 2) [°] | angle of repose ([3]; measurement 3) [°] | stability (in words) ([1]; 75% RH, 92.5% RH, 40° C.) | D90 ([2]; granularity) [μm] | SMILES | granularity (in words) [2, 5] | angle of repose (in words) [3, 5] | effect of down-regulating ERα [4]
95.82 | 95.80 | 95.67 | 96.22 | 96.57 | 95.55 | 3.02 | 23.01 | 43.2 | 41.9 | 42.5 | – | – | C[C@@H]1Cc2c([nH]c3ccccc23)[C@@H](c2c(F)cc(/C=C/C(=O)O)cc2F)N1CC1(F)CC1 [amorphous form, (E)-3-(3,5-difluoro-4-((1R,3R)-2-((1-fluorocyclopropyl)methyl)-3-methyl-2,3,4,9-tetrahydro-1H-pyrido[3,4-b]indol-1-yl)phenyl)acrylic acid] | significantly smaller than that of the crystal forms A, B, and C | significantly larger than that of the crystal forms A, B and C | –
– | – | – | – | – | – | – | – | – | – | – | – | – | C[C@@H]1Cc2c([nH]c3ccccc23)[C@@H](c2c(F)cc(/C=C/C(=O)O)cc2F)N1CC1(F)CC1 [compound of formula I, (E)-3-(3,5-difluoro-4-((1R,3R)-2-((1-fluorocyclopropyl)methyl)-3-methyl-2,3,4,9-tetrahydro-1H-pyrido[3,4-b]indol-1-yl)phenyl)acrylic acid] | – | – | good effect of down-regulating ERα
99.33 | 99.27 | 99.22 | 99.31 | 99.34 | 99.27 | 16.37 | – | 30.6 | 29.6 | 30.5 | good stability | 61.86 | C[C@@H]1Cc2c([nH]c3ccccc23)[C@@H](c2c(F)cc(/C=C/C(=O)O)cc2F)N1CC1(F)CC1 [crystal form A, (E)-3-(3,5-difluoro-4-((1R,3R)-2-((1-fluorocyclopropyl)methyl)-3-methyl-2,3,4,9-tetrahydro-1H-pyrido[3,4-b]indol-1-yl)phenyl)acrylic acid] | – | – | –
99.87 | 99.77 | 99.75 | 99.81 | 99.81 | 99.68 | 15.48 | – | 32.5 | 31.3 | 32.3 | good stability | 60.79 | C[C@@H]1Cc2c([nH]c3ccccc23)[C@@H](c2c(F)cc(/C=C/C(=O)O)cc2F)N1CC1(F)CC1 [crystal form B, (E)-3-(3,5-difluoro-4-((1R,3R)-2-((1-fluorocyclopropyl)methyl)-3-methyl-2,3,4,9-tetrahydro-1H-pyrido[3,4-b]indol-1-yl)phenyl)acrylic acid] | – | – | –
99.78 | 99.80 | 99.84 | 99.79 | 99.78 | 99.71 | 15.02 | – | 31.5 | 31.8 | 30.9 | good stability | 59.88 | C[C@@H]1Cc2c([nH]c3ccccc23)[C@@H](c2c(F)cc(/C=C/C(=O)O)cc2F)N1CC1(F)CC1 [crystal form C, (E)-3-(3,5-difluoro-4-((1R,3R)-2-((1-fluorocyclopropyl)methyl)-3-methyl-2,3,4,9-tetrahydro-1H-pyrido[3,4-b]indol-1-yl)phenyl)acrylic acid] | – | – | –

From patent publication US12522599B2, “Crystal forms of acrylic acid derivatives, preparation method therefor and use thereof” (ZHEJIANG HISUN PHARMACEUTICAL CO., LTD., priority 2019, dated 2026)
